Assay results taken from patent publication US6593343B2, “Quinoline derivatives” (Active Biotech AB, priority 1998, dated 2003).

Assays:
fetuses of female rats [1] = assay: Teratogenic effects in the rat; type: in vivo
[2] = test system: acute experimental autoimmune encephalomyelitis (aEAE); assay: Acute experimental autoimmune encephalomyelitis (aEAE) inhibition; type: in vivo; conditions: at ≧5 mg/kg, mice, treatment control
beagle dogs = assay: Beagle Pain Syndrome (BPS); type: in vivo, dog
Experimental: Beagle Pain Syndrome (BPS)
The compounds were administrated intravenously to beagle dogs. The dosage was given for five consecutive days. The dogs were evaluated for clinical and laboratory signs of the pain syndrome, e.g. fever, increased erythrocyte sedimentation rate (ESR), alkaline phosphate (AP), induction of acute phase proteins and vasculitis.

fetuses of female rats [3] = conditions: rat, background statement; cited from earlier work
[4] = e.g. a flu-like syndrome; cited from earlier work

| Beagle Pain Syndrome (in words) (beagle dogs) | Compound | % malformed fetuses (fetuses of female rats [1]; 6 mg/kg p.o.) [%] | % malformed fetuses (fetuses of female rats [1]; 30 mg/kg p.o.) [%] | inhibition of aEAE [2] | teratogenicity (in words) (fetuses of female rats [3]) | % malformed fetuses (fetuses of female rats [1]; 10 mg/kg p.o.) [%] | side effects in man (in words) [4] |
| --- | --- | --- | --- | --- | --- | --- | --- |
| – | COc1cccc2c1c(O)c(C(=O)N(C)c1ccc(C(F)(F)F)cc1)c(=O)n2C [Compound A, N-methyl-N-(4-trifluoromethyl-phenyl)-1,2-dihydro-4-hydroxy-5-methoxy-1-methyl-2-oxo-quinoline-3-carboxamide] | 4 | 2 | – | – | – | – |
| – | CN(C(=O)c1c(O)c2c(Cl)cccc2n(C)c1=O)c1ccc(F)cc1F [Compound B, N-methyl-N-(2,4-difluoro-phenyl)-1,2-dihydro-4-hydroxy-5-chloro-1-methyl-2-oxo-quinoline-3-carboxamide] | 0 | – | – | – | – | – |
| – | CN(C(=O)c1c(O)c2c(Cl)cccc2n(C)c1=O)c1ccccc1 [Compound C, N-Methyl-N-phenyl-1,2-dihydro-4-hydroxy-5-chloro-1-methyl-2-oxo-quinoline-3-carboxamide] | 37 | – | – | – | – | – |
| induce the Beagle Pain Syndrome | CN(C(=O)c1c(O)c2ccccc2n(C)c1=O)c1ccccc1 [Compound D, N-phenyl-N-methyl-1,2-dihydro-4-hydroxy-1-methyl-2-oxo-quinoline-3-carboxamide] | – | 30 | more than 50% | teratogenic in the rat | 9 | dose-limiting side effects |
